As usually defined, the mass density is the mass of a sample divided by its volume.

Here are results for five compounds from the NIST ThermoML archive (doi:10.1021/je201130h).

± gives the expanded uncertainty stated by the source.

The conditions of the data set: 298.15 K; 101.33 kPa; Liquid; Vibrating tube method.

Turning to `Cc1ccccc1C` [1,2-dimethylbenzene], the mass density came out at 875.52 ± 0.23 kg/m3. To `Cc1ccc(C)cc1` [1,4-dimethylbenzene] belongs 856.65 ± 0.23 kg/m3; to `CC(=O)CC(C)C` [4-methylpentan-2-one], 798.09 ± 0.24 kg/m3.

In the case of `C=CC(=O)O` [propenoic acid], the mass density came to 1059.17 ± 0.32 kg/m3. The value for `Cc1ccccc1` [toluene] was 862.34 ± 0.23 kg/m3.
